Experimental data: ChEMBL document CHEMBL4627377, “Betulin isolated from Pyrola incarnata Fisch. inhibited lipopolysaccharide (LPS)-induced neuroinflammation with the guidance of computer-aided drug design” (Bioorg Med Chem Lett, 2020)
Calls of active or inactive are those of the source. The calls are words filed in the database; no cut-off is given here.

Tests used:
BV-2 [1] = assay: Inhibition of LPS-induced TNF-alpha production in […] BV2 cells at 250 ug/ml preincubated for 4 hrs followed by LPS stimulation and measured after 24 hrs by ELISA; type: functional, cell-based; details: Mus musculus
BV-2 [2] = assay: Inhibition of LPS-induced IL-1beta production in […] BV2 cells at 250 ug/ml preincubated for 4 hrs followed by LPS stimulation and measured after 24 hrs by ELISA; type: functional, cell-based; details: Mus musculus
BV-2 [3] = assay: Cytotoxicity against […] BV2 cells assessed as survival rate at 250 ug/ml; type: cell-based; details: mouse
BV-2 [4] = assay: Inhibition of LPS-induced NO release in […] BV2 cells at 20 ug/ml preincubated for 4 hrs followed by LPS stimulation and measured after 24 hrs by Griess reagent based assay; type: functional, cell-based; details: Mus musculus
BV-2 [5] = assay: Inhibition of LPS-induced IL6 production in […] BV2 cells at 20 ug/ml preincubated for 4 hrs followed by LPS stimulation and measured after 24 hrs by ELISA; type: functional, cell-based; details: Mus musculus
BV-2 [6] = assay: Cytotoxicity against […] BV2 cells assessed as survival rate at 125 ug/ml; type: cell-based; details: mouse
BV-2 [7] = assay: Inhibition of LPS-induced iNOS expression in […] BV2 cells at 250 ug/ml preincubated for 4 hrs followed by LPS stimulation and measured after 24 hrs by Western blot analysis; type: functional, cell-based; details: Mus musculus
BV-2 [8] = assay: Inhibition of LPS-induced IL-1beta production in […] BV2 cells preincubated for 4 hrs followed by LPS stimulation and measured after 24 hrs by ELISA; type: functional, cell-based; details: Mus musculus
BV-2 [9] = assay: Inhibition of LPS-induced JNK-46 activation in […] BV2 cells preincubated for 4 hrs followed by LPS stimulation and measured after 24 hrs by Western blot analysis; type: functional, cell-based; details: Mus musculus
BV-2 [10] = assay: Inhibition of LPS-induced JNK-54 phosphorylation in […] BV2 cells at 62.5 to 250 ug/ml preincubated for 4 hrs followed by LPS stimulation and measured after 24 hrs by Western blot analysis; type: functional, cell-based; details: Mus musculus
BV-2 [11] = assay: Inhibition of LPS-induced NF-kappaB/p65 nuclear translocation in […] BV2 cells assessed as reduction in p65/NFkappaB level at 250 ug/ml by DAPI staining based fluorescence microscopic analysis; type: functional, cell-based; details: Mus musculus
BV-2 [12] = assay: Inhibition of LPS-induced TNF-alpha production in […] BV2 cells preincubated for 4 hrs followed by LPS stimulation and measured after 24 hrs by ELISA; type: functional, cell-based; details: Mus musculus
BV-2 [13] = assay: Inhibition of LPS-induced NO release in […] BV2 cells at 62.5 to 250 ug/ml preincubated for 4 hrs followed by LPS stimulation and measured after 24 hrs by Griess reagent based assay; type: functional, cell-based; details: Mus musculus
BV-2 [14] = assay: Inhibition of LPS-induced IL6 production in […] BV2 cells preincubated for 4 hrs followed by LPS stimulation and measured after 24 hrs by ELISA; type: functional, cell-based; details: Mus musculus
BV-2 [15] = assay: Inhibition of LPS-induced JNK-46 phosphorylation in […] BV2 cells at 62.5 to 250 ug/ml preincubated for 4 hrs followed by LPS stimulation and measured after 24 hrs by Western blot analysis; type: functional, cell-based; details: Mus musculus
BV-2 [16] = assay: Inhibition of LPS-induced JNK-54 activation in […] BV2 cells preincubated for 4 hrs followed by LPS stimulation and measured after 24 hrs by Western blot analysis; type: functional, cell-based; details: Mus musculus
BV-2 [17] = assay: Cytotoxicity against […] BV2 cells assessed as survival rate at 500 ug/ml; type: cell-based; details: mouse

C[C@@H]1CC[C@]2(C(=O)O[C@H]3O[C@@H](CO)[C@H](O)[C@@H](O)[C@@H]3O)CC[C@]3(C)C(=CC[C@@H]4[C@@]5(C)CC[C@H](O)[C@@](C)(CO)[C@@H]5CC[C@]43C)[C@@H]2[C@]1(C)O
inhibition (BV-2 [1]): Active | inhibition (BV-2 [2]): Active | Activity (BV-2 [3]): Non-Toxic

COc1cc2c(cc1OC)C(=O)C(CC1CCN(Cc3ccccc3)CC1)C2 (configuration not stated)
inhibition (BV-2 [4]): Active | inhibition (BV-2 [5]): Active

C=C(C)[C@@H]1CC[C@]2(CO)CC[C@]3(C)[C@H](CC[C@@H]4[C@@]5(C)CC[C@H](O)C(C)(C)[C@@H]5CC[C@]43C)[C@@H]12 [BETULIN]
Activity (BV-2 [6]): Non-Toxic | inhibition (BV-2 [7]): Active | inhibition (BV-2 [8]): Dose-dependent effect | inhibition (BV-2 [9]): Dose-dependent effect | inhibition (BV-2 [10]): Active | inhibition (BV-2 [11]): Active | inhibition (BV-2 [12]): Dose-dependent effect | inhibition (BV-2 [13]): Active | inhibition (BV-2 [14]): Dose-dependent effect | inhibition (BV-2 [15]): Active | inhibition (BV-2 [16]): Dose-dependent effect

C[C@@H]1CC[C@]2(C(=O)O)CC[C@]3(C)C(=CC[C@@H]4[C@@]5(C)CC[C@H](O)[C@@](C)(CO)[C@@H]5CC[C@]43C)[C@@H]2[C@]1(C)O [ROTUNDIC ACID]
inhibition (BV-2 [1]): Active | inhibition (BV-2 [2]): Active | Activity (BV-2 [3]): Non-Toxic

C[C@H]1[C@H](C)CC[C@]2(C(=O)O)CC[C@]3(C)C(=CC[C@@H]4[C@@]5(C)CC[C@H](O)C(C)(C)[C@@H]5CC[C@]43C)[C@H]12 [URSOLIC ACID]
inhibition (BV-2 [1]): Active | inhibition (BV-2 [2]): Active | Activity (BV-2 [17]): Non-Toxic
